Paper PMC11844072, “Novel 5,6-dichlorobenzimidazole derivatives as dual BRAFWT and BRAFV600E inhibitors: design, synthesis, anti-cancer activity and molecular dynamics simulations” (BMC Chemistry, 2025)

Columns and labels:
OVCAR-8 = experiment: NCI 5-dose assay; type: cell-based; details: Homo sapiens; OVCAR-8, Ovarian cancer
Protocol: (§1) The synthesized dichlorobenzimidazoles 10a–p were assayed for their influence on divers cancer cell lines according to the method presented in the Additional file A.
(§2) 5. Screening of cytotoxic activity against a panel of sixty human tumor cell lines
(§3) The selected compounds by NCI were evaluated for their anticancer activity in a two-stage process. First, these compounds were screened against the full NCI 60 cell lines panel at a single high dose of 10 µM. Then, the output from the single dose screen is reported as a mean graph. […]
(§4) at five different minimal concentrations.
(§5) Assay protocol. The human tumor cell lines of the cancer screening panel are grown in RPMI 1640 medium containing 5% fetal bovine serum and 2 mM L-glutamine. For a typical screening experiment, cells are inoculated into 96 well microtiter plates in 100 µL at plating densities ranging from 5000 to 40,000 cells/well depending on the doubling time of individual cell lines. After cell inoculation, the microtiter plates are incubated at 37 °C, 5% CO 2, 95% air and 100% relative humidity for 24 h prior to addition of the experimental drugs.
(§6) After 24 h, two plates of each cell line are fixed in situ with TCA, to represent a measurement of the cell population for each cell line at the time of drug addition (Tz). The experimental drugs are solubilized in dimethyl sulfoxide at 400-fold the desired final maximum test concentration and stored frozen prior to use. At the time of drug addition, an aliquot of frozen concentrate is thawed and diluted to twice the desired final maximum test concentration with complete medium containing 50 µg/mL gentamicin. Additional four, 10-fold or ½ log serial dilutions are made to provide a total of five drug concentrations plus control.
(§7) Aliquots of […] of these different drug dilutions are added to the appropriate microtiter wells already containing […] of medium, resulting in the required final drug concentrations.
(§8) Following drug addition, the plates are incubated for an additional 48 h at 37 °C, 5% CO 2, 95% air, and 100% relative humidity. For adherent cells, the assay is terminated by the addition of cold TCA.
(§9) Cells are fixed in situ by the gentle addition of 50 µL of cold 50% (w/v) TCA (final concentration, 10% TCA) and incubated for 60 min at 4 °C. The supernatant is discarded, and the plates are washed five times with tap water and air dried. Sulforhodamine B (SRB) solution ([…]) at 0.4% (w/v) in 1% acetic acid is added to each well, and plates are incubated for 10 min at room temperature. After staining, unbound dye is removed by washing five times with 1% acetic acid and the plates are air dried. Bound stain is subsequently solubilized with 10 mM trizma base, and the absorbance is read on an automated plate reader at a wavelength of 515 nm. For suspension cells, the methodology is […]
(§10) the same except that the assay is terminated by fixing settled cells at the bottom of the wells by gently adding 50 µl of 80% TCA (final concentration, 16% TCA). Using the seven absorbance measurements [time zero, (Tz), control growth, (C), and test growth in the presence of drug at the five concentration levels (Ti)], the percentage growth is calculated at each of the drug concentrations […]
(§11) Percentage growth inhibition is calculated as: [(Ti Tz)/(C–Tz)] x 100 for concentrations for which Ti>/=Tz and [(Ti-Tz)/Tz] x 100 for concentrations for which Ti < Tz.
(§12) Three dose response parameters are calculated for each experimental agent. Growth […]
(§13) concentration resulting in a 50% reduction in the net protein increase (as measured by SRB staining) in control cells during the drug incubation. The drug concentration resulting in total growth inhibition (TGI) is calculated from Ti = Tz. […]
(§14) reduction in the measured protein at the end of the drug treatment as compared to that at the beginning) indicating a net loss of cells following treatment is calculated from [(Ti–Tz)/Tz] x 100 =
(§15) _50. Values are calculated for each of these three parameters if the level of activity is reached; […]

SF-268 = experiment: NCI 5-dose assay; type: cell-based; details: Homo sapiens; SF-268, CNS cancer
Protocol: as §1, §2, §3, §4, §5, §6, §7, §8, §9, §10, §11, §12, §13, §14, §15

BT-549 = experiment: NCI 5-dose assay; type: cell-based; details: Homo sapiens; BT-549, Breast cancer
Protocol: as §1, §2, §3, §4, §5, §6, §7, §8, §9, §10, §11, §12, §13, §14, §15

HT29 = experiment: NCI 5-dose assay; type: cell-based; details: Homo sapiens, HT-29; HT29, Colon cancer
Protocol: as §1, §2, §3, §4, §5, §6, §7, §8, §9, §10, §11, §12, §13, §14, §15

UO-31 [1] = experiment: NCI 5-dose assay; type: cell-based; details: Homo sapiens; UO-31, Renal cancer
Protocol: as §1, §2, §3, §4, §5, §6, §7, §8, §9, §10, §11, §12, §13, §14, §15

OVCAR-4 = experiment: NCI 5-dose assay; type: cell-based; details: Homo sapiens; OVCAR-4, Ovarian cancer
Protocol: as §1, §2, §3, §4, §5, §6, §7, §8, §9, §10, §11, §12, §13, §14, §15

TK-10 = experiment: NCI 5-dose assay; type: cell-based; details: Homo sapiens; TK-10, Renal cancer
Protocol: as §1, §2, §3, §4, §5, §6, §7, §8, §9, §10, §11, §12, §13, §14, §15

MALME-3M = experiment: NCI 5-dose assay; type: cell-based; details: Homo sapiens, Melanoma
Protocol: as §1, §2, §3, §4, §5, §6, §7, §8, §9, §10, §11, §12, §13, §14, §15

KM12 = experiment: NCI 5-dose assay; type: cell-based; details: Homo sapiens; KM12, Colon cancer
Protocol: as §1, §2, §3, §4, §5, §6, §7, §8, §9, §10, §11, §12, §13, §14, §15

HS 578T = experiment: NCI 5-dose assay; type: cell-based; details: Homo sapiens, Breast cancer
Protocol: as §1, §2, §3, §4, §5, §6, §7, §8, §9, §10, §11, §12, §13, §14, §15

SK-MEL-28 = experiment: NCI 5-dose assay; type: cell-based; details: Homo sapiens; SK-MEL-28, Melanoma
Protocol: as §1, §2, §3, §4, §5, §6, §7, §8, §9, §10, §11, §12, §13, §14, §15

SN12C = experiment: NCI 5-dose assay; type: cell-based; details: Homo sapiens, Renal cancer
Protocol: as §1, §2, §3, §4, §5, §6, §7, §8, §9, §10, §11, §12, §13, §14, §15

A549/ATCC = experiment: NCI 5-dose assay; type: cell-based; details: Homo sapiens, Non-small cell lung cancer
Protocol: as §1, §2, §3, §4, §5, §6, §7, §8, §9, §10, §11, §12, §13, §14, §15

SF-539 = experiment: NCI 5-dose assay; type: cell-based; details: Homo sapiens; SF-539, CNS cancer
Protocol: as §1, §2, §3, §4, §5, §6, §7, §8, §9, §10, §11, §12, §13, §14, §15

MCF7 = experiment: NCI 5-dose assay; type: cell-based; details: Homo sapiens; MCF7, Breast cancer
Protocol: as §1, §2, §3, §4, §5, §6, §7, §8, §9, §10, §11, §12, §13, §14, §15

IGROV1 = experiment: NCI 5-dose assay; type: cell-based; details: Homo sapiens, IGROV-1; IGROV1, Ovarian cancer
Protocol: as §1, §2, §3, §4, §5, §6, §7, §8, §9, §10, §11, §12, §13, §14, §15

CAKI-1 = experiment: NCI 5-dose assay; type: cell-based; details: Homo sapiens; CAKI-1, Renal cancer
Protocol: as §1, §2, §3, §4, §5, §6, §7, §8, §9, §10, §11, §12, §13, §14, §15

SW-620 = experiment: NCI 5-dose assay; type: cell-based; details: Homo sapiens; SW-620, Colon cancer
Protocol: as §1, §2, §3, §4, §5, §6, §7, §8, §9, §10, §11, §12, §13, §14, §15

M14 = experiment: NCI 5-dose assay; type: cell-based; details: Homo sapiens; M14, Melanoma
Protocol: as §1, §2, §3, §4, §5, §6, §7, §8, §9, §10, §11, §12, §13, §14, §15

NCI-H322M = experiment: NCI 5-dose assay; type: cell-based; details: Homo sapiens, Non-small cell lung cancer
Protocol: as §1, §2, §3, §4, §5, §6, §7, §8, §9, §10, §11, §12, §13, §14, §15

LOX IMVI = experiment: NCI 5-dose assay; type: cell-based; details: Homo sapiens, Melanoma
Protocol: as §1, §2, §3, §4, §5, §6, §7, §8, §9, §10, §11, §12, §13, §14, §15

SK-OV-3 = experiment: NCI 5-dose assay; type: cell-based; details: Homo sapiens; SK-OV-3, Ovarian cancer
Protocol: as §1, §2, §3, §4, §5, §6, §7, §8, §9, §10, §11, §12, §13, §14, §15

UO-31 [2] = experiment: NCI 60 single concentration growth inhibition; type: cell-based, human; details: UO-31, Renal cancer, 10 μM
Method in brief: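 Cells are plated and left 24 h, and a time-zero plate is fixed at drug addition. Compound is then added for 48 h, the cells are fixed in cold TCA and stained with 0.4% SRB, and bound dye is solubilised in 10 mM Tris for reading at 515 nm.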

SMILES	GI50 (OVCAR-8) [µM]	GI50 (SF-268) [µM]	GI50 (BT-549) [µM]	GI50 (HT29) [µM]	GI50 (UO-31 [1]) [µM]	GI50 (OVCAR-4) [µM]	GI50 (TK-10) [µM]	GI50 (MALME-3M) [µM]	GI50 (KM12) [µM]	GI50 (HS 578T) [µM]	GI50 (SK-MEL-28) [µM]	GI50 (SN12C) [µM]	GI50 (A549/ATCC) [µM]	GI50 (SF-539) [µM]	GI50 (MCF7) [µM]	GI50 (IGROV1) [µM]	GI50 (CAKI-1) [µM]	GI50 (SW-620) [µM]	GI50 (M14) [µM]	GI50 (NCI-H322M) [µM]	also measured
COC(=O)COc1ccc(C=NNC(=O)Cn2c(-c3ccc(OC)cc3)nc3cc(Cl)c(Cl)cc32)cc1 [Compound 10h, Methyl-2-(4-((2-(2-(5,6-dichloro-2-(4-methoxyphenyl)-1H-benzo[d]imidazol-1-yl)acetyl)hydrazono)methyl)phenoxy)acetate]	2.93	10.1	25.6	1.79	9.74	17.2	13.2	9.18	> 82.5	10.1	11.7	2.95	> 82.5	10.7	4.25	4.06	5.74	22.2	17.5	21.3	GI50 (LOX IMVI): 6.83 µM; GI50 (SK-OV-3): 19.1 µM
CCOC(=O)C(C)Oc1ccc(C=NNC(=O)Cn2c(-c3ccc(OC)cc3)nc3cc(Cl)c(Cl)cc32)cc1 (stereo not drawn) [Compound 10j, Ethyl-2-(4-((2-(2-(5,6-dichloro-2-(4-methoxyphenyl)-1H-benzo[d]imidazol-1-yl)acetyl) hydrazono)methyl)phenoxy)propanoate]	–	–	–	–	–	–	–	–	–	–	–	–	–	–	–	–	–	–	–	–	GI% (UO-31 [2]): 25.57%
COc1ccc(-c2nc3cc(Cl)c(Cl)cc3n2CC(=O)NN=Cc2ccc(OC)c(O)c2)cc1 [Compound 10k, 2-(5,6-Dichloro-2-(4-methoxyphenyl)-1H-benzo[d]imidazol-1-yl)-N'-(3-hydroxy-4-methoxybenzylidene)acetohydrazide]	–	–	–	–	–	–	–	–	–	–	–	–	–	–	–	–	–	–	–	–	GI% (UO-31 [2]): 55.02%
COC(=O)COc1cc(C=NNC(=O)Cn2c(-c3ccc(OC)cc3)nc3cc(Cl)c(Cl)cc32)ccc1OC [Compound 10o, Methyl-2-(5-((2-(2-(5,6-dichloro-2-(4-methoxyphenyl)-1H-benzo[d]imidazol-1-yl)acetyl)hydrazono)methyl)-2-methoxyphenoxy)acetate]	8.68	> 100	> 100	12.9	1.82	20.5	18.3	> 100	> 100	2.68	> 100	7.92	> 100	5.28	100	14.7	15.3	> 100	> 100	60.4	GI% (UO-31 [2]): 18.26%; GI50 (LOX IMVI): > 100 µM; GI50 (SK-OV-3): 26 µM
COC(=O)COc1ccc(C=NNC(=O)Cn2c(-c3ccc(OC)cc3)nc3cc(Cl)c(Cl)cc32)cc1OC [Compound 10p, Methyl-2-(4-((2-(2-(5,6-dichloro-2-(4-methoxyphenyl)-1H-benzo[d]imidazol-1-yl)acetyl)hydrazono)methyl)-2-methoxyphenoxy)acetate]	2.54	32.4	> 72.5	1.46	8.11	23	12.6	> 72.5	> 72.5	4.34	> 72.5	2.2	> 72.5	7.52	> 72.5	3.6	2.77	> 72.5	> 72.5	22.2	GI50 (LOX IMVI): 31.2 µM; GI50 (SK-OV-3): 16 µM
